Results from US20230135894A1, “MK2 DEGRADERS AND USES THEREOF” (Kymera Therapeutics, Inc., priority 2021, published 2023).

Assays:
MK2 [1] = target: T1, MK2 (Homo sapiens, UniProt P49137); assay: MK2 degradation in human THP-1 monocytic cells (MSD, 24 h); assay type: cell-based; parameters: endogenous in cells; key to MK2 MSD THP-1 degradation 24 h GMean External Abs DC50: A (<0.001 μM); B (0.001-0.01 μM); C (0.01-0.1 μM); D (>0.1 μM); —: “-”=not tested or inactive; conditions: for Dmax: THP-1, THP-1 cells; for MK2 MSD THP-1 degradation 24 h GMean External Abs DC50 / DC50: THP-1 cells; for DC50: read-out: MK2 MSD THP-1 degradation 24 h GMean External Abs DC50
Method in brief: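 THP-1 cells (200,000/well) treated 24 h at 37 °C with compound dilution series (up to 10 points, 0.1% DMSO). MK2 in RIPA lysates quantified by MSD sandwich immunoassay. DC50 from 4-parameter logistic fit, DMSO-treated cells as high and lysis buffer as low signal.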

MK2 [2] = target: T1, MK2; assay: MK2 degradation in human SW1353 cells (MSD, 24 h); assay type: cell-based; parameters: endogenous in cells; host or cells: SW-1353 (ATCC HTB-94); key to MK2 MSD SW1353 degradation 24 h GMean External Abs DC50: A (<0.001 μM); B (0.001-0.01 μM); C (0.01-0.1 μM); D (>0.1 μM); —: “-”=not tested or inactive; key to MK2 MSD SW 1353 24 h Dmax %: —: “-”=not tested or inactive; conditions: for Dmax: read-out: MK2 MSD SW 1353 24 h Dmax %; for DC50: read-out: MK2 MSD SW1353 degradation 24 h GMean External Abs DC50
Method in brief: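 SW1353 chondrosarcoma cells were treated with up to 10-point serial dilutions (0.1% DMSO) for 24 h at 37 °C, then lysed in RIPA buffer. MK2 levels were quantified by MSD sandwich immunoassay; DC50 came from a 4-parameter logistic fit normalised to DMSO-treated cells (high) and lysis buffer (low).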

T1 sequence (P49137 whole entry): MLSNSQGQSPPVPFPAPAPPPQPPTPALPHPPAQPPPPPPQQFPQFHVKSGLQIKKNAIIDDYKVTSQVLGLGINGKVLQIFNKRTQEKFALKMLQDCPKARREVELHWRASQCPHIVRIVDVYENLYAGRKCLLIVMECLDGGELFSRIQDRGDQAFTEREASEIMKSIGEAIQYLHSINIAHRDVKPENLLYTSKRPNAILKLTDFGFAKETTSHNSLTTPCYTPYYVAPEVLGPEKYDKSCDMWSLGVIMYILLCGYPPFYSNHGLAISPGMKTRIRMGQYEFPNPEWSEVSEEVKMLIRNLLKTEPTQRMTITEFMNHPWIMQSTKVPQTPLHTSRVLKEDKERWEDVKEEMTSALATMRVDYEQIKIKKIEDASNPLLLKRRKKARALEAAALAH

| Compound | Dmax (MK2 [1]) [%] | MK2 MSD THP-1 degradation 24 h GMean External Abs DC50 (MK2 [1]) | MK2 MSD SW1353 degradation 24 h GMean External Abs DC50 (MK2 [2]) | Dmax (MK2 [2]) [%] | DC50 (MK2 [1]) [nM] | DC50 (MK2 [2]) [nM] | MK2 MSD SW 1353 24 h Dmax % (MK2 [2]) |
| --- | --- | --- | --- | --- | --- | --- | --- |
| C[C@@H]1CNc2c(sc3ccc4nc(-c5cccc(C#CCCNC(=O)COCCOCCc6ccc7c(c6)n(C)c(=O)n7C6CCC(=O)NC6=O)c5)ccc4c23)C(=O)N1 (some centres unmarked) [Compound I-49] | > 75 |  |  | > 75 | 1 to 10 | 1 to 10 |  |
| C[C@@H]1CNc2c(sc3ccc4nc(-c5cncc(N6CCN(CCCCCCCc7cccc8c7n(C)c(=O)n8C7CCC(=O)NC7=O)CC6)c5)ccc4c23)C(=O)N1 (some centres unmarked) [Compound I-158] | > 75 |  |  | > 75 | < 1 | 1 to 10 |  |
| Cn1c(=O)n(C2CCC(=O)NC2=O)c2ccc(N3CCC(CN4CCN(c5ccc(-c6cc(-c7cc8c([nH]7)CCNC8=O)ccn6)cc5)CC4)CC3)cc21 (centres unmarked) [Compound I-143] | > 75 |  |  | > 75 | < 1 | < 1 |  |
| Cn1c(=O)n(C2CCC(=O)NC2=O)c2ccc(N3CCC(CN4CCN(c5ccc(-c6cc(-c7cc8c([nH]7)CCNC8=O)ccn6)cn5)CC4)CC3)cc21 (centres unmarked) [Compound I-141] | > 75 |  |  | > 75 | < 1 | < 1 |  |
| Cn1c(=O)n(C2CCC(=O)NC2=O)c2ccc(CCCN3CCN(c4cccc(-c5ccc(-c6cc7c([nH]6)CCNC7=O)cn5)c4)CC3)cc21 (centres unmarked) [Compound I-121] | < 50 |  |  | < 50 | > 100 | > 100 |  |
| C[C@@H]1CNc2c(sc3ccc4nc(-c5ccc(N6CCN(CCCCCc7ccc8c(c7)n(C)c(=O)n8C7CCC(=O)NC7=O)CC6)cc5)ccc4c23)C(=O)N1 (some centres unmarked) [Compound I-174] | > 75 |  |  | > 75 | < 1 | < 1 |  |

Results, then the molecule that gave them:

| Dmax (MK2 [1]) [%] | MK2 MSD THP-1 degradation 24 h GMean External Abs DC50 (MK2 [1]) | MK2 MSD SW1353 degradation 24 h GMean External Abs DC50 (MK2 [2]) | Dmax (MK2 [2]) [%] | DC50 (MK2 [1]) [nM] | DC50 (MK2 [2]) [nM] | MK2 MSD SW 1353 24 h Dmax % (MK2 [2]) | Compound |
| --- | --- | --- | --- | --- | --- | --- | --- |
| < 50 | — | — | < 50 |  |  |  | C[C@@H]1CNc2c(sc3ccc4nc(N5C[C@H]6C[C@@H]5CN6CC5CCN(c6cccc7c6n(C)c(=O)n7C6CCC(=O)NC6=O)CC5)ccc4c23)C(=O)N1 (some centres unmarked) [Compound I-182] |
| < 50 |  |  |  | > 100 | > 100 | — | Cn1c(=O)n(C2CCC(=O)NC2=O)c2ccc(N3CCC(CN4CCN(c5cc(-c6cc(-c7cc8c([nH]7)CCNC8=O)ccn6)cc(C6CCCC6)c5)CC4)CC3)cc21 (centres unmarked) [Compound I-193] |
| > 75 |  |  | > 75 | < 1 | < 1 |  | C[C@@H]1CNc2c(sc3ccc4nc(N5CCC(N6CCC7(CCN(c8ccc9c(c8)n(C)c(=O)n9C8CCC(=O)NC8=O)CC7)C6)CC5)ccc4c23)C(=O)N1 (some centres unmarked) [Compound I-410] |
| > 75 |  |  | > 75 | 1 to 10 | 1 to 10 |  | C[C@@H]1CNc2c(sc3ccc4nc(-c5ccc(N6CCN(CCCCCCCCc7ccc8c(c7)n(C)c(=O)n8C7CCC(=O)NC7=O)CC6)cc5)ccc4c23)C(=O)N1 (some centres unmarked) [Compound I-175] |
| > 75 |  |  | > 75 | < 1 | < 1 |  | Cn1c(=O)n(C2CCC(=O)NC2=O)c2ccc(N3CCC(CN4CCN(c5ccc(-c6nccc(-c7cc8c([nH]7)CCNC8=O)n6)cc5)CC4)CC3)cc21 (centres unmarked) [Compound I-427] |
| > 75 |  |  | > 75 | < 1 | < 1 |  | Cn1c(=O)n(C2CCC(=O)NC2=O)c2ccc(N3CCC(CN4CCN(c5ccc(-c6cc(-c7cc8c([nH]7)C7(CC7)CNC8=O)ccn6)cc5)CC4)CC3)cc21 (centres unmarked) [Compound I-244] |
| > 75 | — | — | > 75 |  |  |  | C#Cc1cc(-c2ccc3c(ccc4sc5c(c43)NC[C@@H](C)NC5=O)n2)cc(N2CCN(CC3CCN(c4ccc5c(c4)n(C)c(=O)n5C4CCC(=O)NC4=O)CC3)CC2)c1 (some centres unmarked) [Compound I-186] |
| < 50 |  |  | < 50 | > 100 | > 100 |  | O=C1CCC(N2Cc3cc(N4CCN(CC5CCN(c6ccc(F)c(-c7cc(-c8cc9c([nH]8)CCNC9=O)ccn7)c6)CC5)CC4)ccc3C2=O)C(=O)N1 (centres unmarked) [Compound I-301] |
